Among the data in patent publication US9212182B2, “Bicyclic sulfonamide compounds as sodium channel inhibitors” (AMGEN INC., priority 2013, dated 2015) are IC50 values, retold here.

pIC50: −log10 of the molar value. Read-outs that look alike come from different tables or passages of the source.

The assay has as its target Nav 1.7 (Homo sapiens (Human), UniProt Q15858). Kind of assay: in-vitro Nav 1.7 PX (IC50). It counts as cell-based.

Nav 1.7, sequence (Q15858 whole entry): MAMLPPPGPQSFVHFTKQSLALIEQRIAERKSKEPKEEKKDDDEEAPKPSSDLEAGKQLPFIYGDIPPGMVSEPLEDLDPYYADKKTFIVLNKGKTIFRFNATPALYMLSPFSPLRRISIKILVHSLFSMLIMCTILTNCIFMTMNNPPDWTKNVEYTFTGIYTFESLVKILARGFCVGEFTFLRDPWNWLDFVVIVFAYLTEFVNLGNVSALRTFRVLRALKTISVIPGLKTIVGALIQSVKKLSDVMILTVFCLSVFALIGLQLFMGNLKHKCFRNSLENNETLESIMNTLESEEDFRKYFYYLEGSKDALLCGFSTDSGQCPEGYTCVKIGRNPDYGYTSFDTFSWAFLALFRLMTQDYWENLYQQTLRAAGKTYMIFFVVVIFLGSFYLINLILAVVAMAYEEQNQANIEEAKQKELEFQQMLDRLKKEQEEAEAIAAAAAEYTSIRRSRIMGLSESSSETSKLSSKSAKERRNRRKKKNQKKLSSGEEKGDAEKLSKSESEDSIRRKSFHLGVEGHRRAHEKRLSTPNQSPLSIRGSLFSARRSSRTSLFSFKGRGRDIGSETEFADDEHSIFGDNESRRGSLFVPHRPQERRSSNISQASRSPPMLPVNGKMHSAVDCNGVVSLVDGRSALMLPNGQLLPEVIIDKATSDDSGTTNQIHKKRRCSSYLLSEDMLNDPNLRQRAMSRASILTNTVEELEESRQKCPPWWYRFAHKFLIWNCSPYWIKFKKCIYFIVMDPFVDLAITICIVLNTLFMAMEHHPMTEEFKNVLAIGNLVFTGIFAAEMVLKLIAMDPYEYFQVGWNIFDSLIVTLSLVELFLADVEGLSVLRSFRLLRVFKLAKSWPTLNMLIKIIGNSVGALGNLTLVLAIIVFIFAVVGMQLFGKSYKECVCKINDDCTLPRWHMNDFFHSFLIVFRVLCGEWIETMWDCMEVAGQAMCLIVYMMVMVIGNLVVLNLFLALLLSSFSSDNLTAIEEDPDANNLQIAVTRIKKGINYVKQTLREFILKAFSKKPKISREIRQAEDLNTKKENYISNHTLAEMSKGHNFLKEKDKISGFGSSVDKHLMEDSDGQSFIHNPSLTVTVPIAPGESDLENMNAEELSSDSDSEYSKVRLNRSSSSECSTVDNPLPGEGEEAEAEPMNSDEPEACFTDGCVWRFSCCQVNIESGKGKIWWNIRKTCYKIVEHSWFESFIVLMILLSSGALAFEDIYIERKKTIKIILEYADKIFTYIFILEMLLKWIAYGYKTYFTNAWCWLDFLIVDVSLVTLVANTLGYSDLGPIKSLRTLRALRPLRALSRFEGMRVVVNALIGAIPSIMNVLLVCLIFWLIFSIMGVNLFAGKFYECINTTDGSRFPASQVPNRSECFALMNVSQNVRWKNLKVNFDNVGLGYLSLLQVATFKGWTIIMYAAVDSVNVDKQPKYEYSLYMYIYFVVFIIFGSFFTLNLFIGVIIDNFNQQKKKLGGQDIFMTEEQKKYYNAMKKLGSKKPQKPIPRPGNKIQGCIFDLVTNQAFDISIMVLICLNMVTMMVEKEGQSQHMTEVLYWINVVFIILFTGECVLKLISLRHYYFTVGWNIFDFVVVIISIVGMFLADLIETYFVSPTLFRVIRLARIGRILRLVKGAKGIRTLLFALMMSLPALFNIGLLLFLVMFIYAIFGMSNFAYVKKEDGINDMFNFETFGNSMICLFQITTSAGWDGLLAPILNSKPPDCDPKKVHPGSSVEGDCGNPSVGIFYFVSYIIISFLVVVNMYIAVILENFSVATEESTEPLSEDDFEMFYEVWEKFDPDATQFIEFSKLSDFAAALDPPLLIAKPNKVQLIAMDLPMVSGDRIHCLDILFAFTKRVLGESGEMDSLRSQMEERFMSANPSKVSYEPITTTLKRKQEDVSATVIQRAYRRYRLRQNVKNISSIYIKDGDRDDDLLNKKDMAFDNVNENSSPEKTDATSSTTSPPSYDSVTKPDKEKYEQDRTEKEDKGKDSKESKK

In the case of `COc1cc(Cl)ccc1-c1ccc(-n2c(=O)ccc3cc(S(=O)(=O)Nc4ccon4)ccc32)c(OC)c1` [Example 816, 1-(4′-chloro-2′,3-dimethoxy-4-biphenylyl)-N-3-isoxazolyl-2-oxo-1,2-dihydro-6-quinolinesulfonamide], the pIC50 (in-vitro Nav 1.7 PX data) was 7.57.
The same measure, in the same setting: the value for `COc1cc(Br)c(F)cc1-n1c(=O)ccc2cc(S(=O)(=O)Nc3cccc(C)n3)ccc21` [Example 989, 1-(4-bromo-5-fluoro-2-methoxyphenyl)-N-(6-methyl-2-pyridinyl)-2-oxo-1,2-dihydro-6-quinolinesulfonamide] was 5.06.
Take `COc1cc(CC2CCOCC2)c(F)cc1-n1c(=O)ccc2cc(S(=O)(=O)Nc3ccon3)ccc21` [Example 1121, 1-(5-fluoro-2-methoxy-4-(tetrahydro-2H-pyran-4-ylmethyl)phenyl)-N-3-isoxazolyl-2-oxo-1,2-dihydro-6-quinolinesulfonamide]: under “in-vitro Nav 1.7 PX data”, the negative logarithm of the IC50 (pIC50) was 6.16.
On the same count and under the same terms, the value for `COc1cc(-c2ccc(Cl)cc2)c(F)cc1-n1c(=O)ccc2cc(S(=O)(=O)Nc3ccon3)ccc21` (atropisomer, axis not shown; (P)) [Example 633, (P)-1-(4′-chloro-2-fluoro-5-methoxy-4-biphenylyl)-N-3-isoxazolyl-2-oxo-1,2-dihydro-6-quinolinesulfonamide] was 8.15.
`COc1nc(OCc2ccc(F)c(C(F)(F)F)c2)c(Cl)cc1-n1c(=O)ccc2cc(S(=O)(=O)Nc3ccon3)ccc21` [Example 1215, 1-(5-chloro-6-((4-fluoro-3-(trifluoromethyl)benzyl)oxy)-2-methoxy-3-pyridinyl)-N-3-isoxazolyl-2-oxo-1,2-dihydro-6-quinolinesulfonamide] gave a pIC50 of 7.62.
Consider `COc1cc(-c2cccc(Cl)c2OC)c(F)cc1-n1c(=O)ccc2cc(S(=O)(=O)Nc3ccon3)ccc21` [Example 747, 1-(3′-chloro-2-fluoro-2′,5-dimethoxy-4-biphenylyl)-N-3-isoxazolyl-2-oxo-1,2-dihydro-6-quinolinesulfonamide], for which, under “in-vitro Nav 1.7 PX data”, the pIC50 was 7.80.
Compound `COc1cc(-c2ccc(Cl)c(C)c2)ccc1-n1c(=O)ccc2cc(S(=O)(=O)Nc3ccc(F)cn3)ccc21` (atropisomer, axis not shown; (P)) [Example 689, (P)-1-(4′-chloro-3-methoxy-3′-methyl-4-biphenylyl)-N-(5-fluoro-2-pyridinyl)-2-oxo-1,2-dihydro-6-quinolinesulfonamide] showed a pIC50 (in-vitro Nav 1.7 PX data) of 7.30.
`COc1cc(C#CC2CCCC2)c(F)cc1-n1c(=O)cnc2cc(S(=O)(=O)Nc3ccon3)ccc21` [Example 1142, 1-(4-(cyclopentylethynyl)-5-fluoro-2-methoxyphenyl)-N-3-isoxazolyl-2-oxo-1,2-dihydro-6-quinoxalinesulfonamide] showed a pIC50 of 7.10.
With `COc1cc(-c2cccc(F)c2)ccc1-n1c(=O)ccc2cc(S(=O)(=O)Nc3ccon3)ccc21` [Example 818, 1-(3′-fluoro-3-methoxy-4-biphenylyl)-N-3-isoxazolyl-2-oxo-1,2-dihydro-6-quinolinesulfonamide], where the note is “in-vitro Nav 1.7 PX data”, the pIC50 was 7.42.
On the same count and under the same terms, the same measure for `COc1ccc(-c2ccc(F)cc2)cc1-n1c(=O)ccc2cc(S(=O)(=O)Nc3ccon3)ccc21` [Example 844, 1-(4′-fluoro-4-methoxy-3-biphenylyl)-N-3-isoxazolyl-2-oxo-1,2-dihydro-6-quinolinesulfonamide]: 6.67.
For `COc1nc(O[C@H](C)C(F)(F)C(F)F)c(Cl)cc1-n1c(=O)ccc2cc(S(=O)(=O)Nc3ccon3)ccc21` [Example 1212, 1-(5-chloro-2-methoxy-6-(((1R)-2,2,3,3-tetrafluoro-1-methylpropyl)oxy)-3-pyridinyl)-N-3-isoxazolyl-2-oxo-1,2-dihydro-6-quinolinesulfonamide, 1-(5-chloro-2-methoxy-6-(((1S)-2,2,3,3-tetrafluoro-1-methylpropyl)oxy)-3-pyridinyl)-N-3-isoxazolyl-2-oxo-1,2-dihydro-6-quinolinesulfonamide], the pIC50 was 6.87.

Broadly, the pIC50 is the negative decadic logarithm of the IC50, by convention in mol/L. High values mean a low IC50, low ones a high IC50.
